Patent US20220267719A1, “METHOD FOR LOADING OF MICROORGANISMS ON MULTIPHASE BIOMATERIALS” (priority 2019, published 2022)

Tests used:
S. aureus [1] = assay: Agar diffusion test with loaded BNC fleeces; assay type: cell-based, Staphylococcus aureus
Protocol: The evaluation of the antibacterial activity of B. subtilis and B. megaterium loaded-BNC against gram-positive S. aureus was determined by an agar diffusion test. Therefore, the bacterial suspensions of B. subtilis and S. aureus were prepared in TSB broth medium as described before. […] 3 BNC fleeces were loaded using B. subtilis suspension in TSB medium, and 3 BNC fleeces were loaded using B. subtilis suspension in saline. Further 3 BNC fleeces were loaded using the B. subtilis free-supernatant, 3 BNC fleeces were loaded with gentamycin as positive control, and 3 BNC fleeces with isotonic saline as negative control. The OD600 of S. aureus was adjusted to 0.5 McFarland using sterilized saline NaCl 0.9% and the optical density spectrophotometer (Biophotometer) was determined. 20 μl of S. aureus was spread on the surface of Mueller-Hinton agar plate by a sterilized glass spreader. The last control and loaded BNC fleeces were added onto surface of the Mueller Hinton agar: 1. Negative control: saline-loaded BNC 2. Positive control: gentamicin-loaded BNC 3. B. subtilis-loaded BNC in TSB medium 4. B. subtilis-loaded BNC in saline 5. B. subtilis-free supernatant-loaded BNC.

S. aureus [2] = assay: Agar well diffusion test without BNC; assay type: cell-based, Staphylococcus aureus
Protocol: For the agar diffusion test the OD600 of B. megaterium and B. subtilis was adjusted to 0.1 McFarland using sterilized saline NaCl 0.9%. The OD600 of S. aureus was adjusted to 0.5 McFarland using sterilized saline NaCl 0.9%. 20 μl of S. aureus was spread on the surface of Mueller-Hinton agar plate by a sterilized glass spreader. The wells are […] on the agar plate using the back side of a 1 ml pipette tip. A small volume of Mueller-Hinton agar was melted in boiling water bath, then 100 μl of it was used to close the bottom of each created well. After solidification of the agar in the bottom of the wells, the wells were filled with 100 μl of: Negative control, sterilized saline NaCl 0.9%, Positive control, gentamicin 300 μg/ml, B. megaterium or B. subtilis-free supernatant, B. megaterium or B. subtilis suspension.

gentamicin [Gentamycin]
inhibition effect on S. aureus by diffusion test, on BNC - injection technique (S. aureus [1]; loaded on BNC by injection): + (by detection of inhibition zone > 2 mm)
inhibition effect on S. aureus by diffusion test, on BNC - spray technique (S. aureus [1]; loaded on BNC by spray): + (by detection of inhibition zone > 2 mm)
inhibition effect on S. aureus by diffusion test, on BNC - vortex technique (S. aureus [1]; loaded on BNC by vortex): + (by detection of inhibition zone > 2 mm)
inhibition effect on S. aureus by diffusion test, Without BNC (S. aureus [2]): + (by detection of inhibition zone > 2 mm)
